The values that follow are results of earlier work, collected in US20110086898A1, “PYRAZOLOOXAZOLE COMPOUND” (Eisai R&D Management Co., Ltd., priority 2009, published 2011).

Data set [1] relates to rats. The following applies: Psychopharmacology, 137:184-190 (1998); cited from earlier work.
Data set [2] concerns rats. Particulars: Psychopharmacology, 150:317-324 (2000); cited from earlier work.
Data set [3] concerns learning disability following acute stress. The following applies: Behavioural Brain Research, 138: 207-213 (2003); cited from earlier work.
Data set [4] has as its system naltrexone-induced morphine withdrawal symptoms. Particulars: pretreatment; Journal of Neurochemistry, 74: 199-208 (2000); cited from earlier work.
Data set [5] has as its system rats. The following applies: European Journal of Pharmacology, 492:195-201 (2004); cited from earlier work.
In data set [6] the test system is gastric emptying retardation after surgery. Particulars: Gastroenterology, 125:654-659 (2003); cited from earlier work.
Another data set concerns high-anxiety rats. The following applies: particularly in high-anxiety rats; Journal of Psychiatric Research, 36:197-208 (2002); cited from earlier work.
Data set [7] concerns rats. The following applies: European Journal of Neuroscience, 13:373-380 (2001); cited from earlier work.
Data set [8] deals with depression, depressive symptoms, anxiety. Particulars: Journal of Psychiatric Research, 34:171-181 (2000); cited from earlier work.
A further data set deals with rat. The following applies: Brain Research, 893:29-35 (2001); cited from earlier work.
The subject of the next data set is Tg2576 transgenic mice. The following applies: Journal of Neurochemistry, 108: 165-175 (2009); cited from earlier work.
In the next data set the test system is limbic system seizure. The following applies: Brain Research, 770:89-95; cited from earlier work.
Data set [9] has as its system hypertension induced by intraventricular administration of CRF. Particulars: Brain Research, 881: 204-207 (2000); cited from earlier work.
Data set [10] relates to hippocampal tau phosphorylation. The following applies: Journal of Neuroscience, 27 (24): 6552-6562 (2007); cited from earlier work.

For `CCCCN(CC)c1nc(C)nc2c1c(C)cn2-c1c(C)cc(C)cc1C` [CP-154526], the “recurrence of stress-elicited drug (heroin, cocaine)-seeking behavior” value in the data set with rats [1] is “inhibits”. Further, in the data set on rats [2], the “recurrence of stress-elicited alcohol-seeking behavior” value is reported as “inhibits”. In addition, the “learning disability following acute stress” value in [3] is reported as “inhibits”. Besides, in [4], the “naltrexone-induced morphine withdrawal symptoms” value is given as “inhibits”. For the same molecule, the “anti-depressant and anti-anxiety actions” value with rats [5] was “exhibits anti-depressant and anti-anxiety actions”. In addition, the “gastric emptying retardation after surgery” value in [6] is “recovers”.

For `CCCN(CCC)c1cc(C)nc2c(-c3cnc(N(C)C)cc3C)c(C)nn12` [Example R121919], the stress-related sleep disorder result with high-anxiety rats was “inhibits”. The anti-anxiety action result in the data set with rats [7] was “exhibits an anti-anxiety action”. In addition, in data set [8], the “ameliorating depression, depressive symptoms, anxiety” value was “effective”.

As for `CCCN(CC1CC1)c1nc(C)nc(Nc2c(Cl)cc(Cl)cc2Cl)c1Cl` [NBI-27914], the “water avoidance stress-related rat catharsis” value in the data set with rat was “inhibits”. For the same molecule, the “increased levels of Aβ and Aβ plaque deposition induced by stress” value in the data set with Tg2576 transgenic mice is reported as “inhibits”. The “limbic system seizure (convulsion and epilepsy induced by CRF administration)” value in the data set with limbic system seizure is on record as “inhibits”.

For `CCCCN(CC)c1nc(C)nc2c1c(C)c(C)n2-c1c(C)cc(C)cc1C` [antalarmin], the “hypertension induced by intraventricular administration of CRF” value in data set [9] is “inhibits”. For the same molecule, in data set [10], the “stress-induced hippocampal tau phosphorylation” value is “inhibits”.
